Drawing on PubChem BioAssay (NCI), this text covers TGI and GI50 for nine molecules.

Each structure is given as a SMILES string.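 Where inhibition never reached the appropriate level, the endpoint shown equals the highest concentration tested. Otherwise, values were interpolated linearly from a five-concentration, 48-hour dose response in 96-well plates. GI50 is the concentration that inhibits growth by half. TGI denotes the concentration required for complete inhibition of growth.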

Among the test systems are U251 CNS; NCI-H460 lung; NCI-H226 lung; RXF 393 renal; HCT-15 colon; RPMI-8226 leukemia; MOLT-4 leukemia; UACC-62 melanoma; OVCAR-5 ovarian; SF-268 CNS.
Assay in all cases: growth of human tumour cells (NCI), 48 h

Take `CCc1nc2ccc(N=Nc3c(O)ccc4ccccc34)cc2[nH]1`: the TGI with U251 CNS is 39.9 µM; in the assay with NCI-H460 lung, 36.8 µM; in the assay with NCI-H226 lung, 41.1 µM; with RXF 393 renal it was 25.6 µM; in the assay with HCT-15 colon it was 33.4 µM; with RPMI-8226 leukemia it was > 78 µM. For the same molecule, the TGI with MOLT-4 leukemia stood at 81.1 µM; in the assay with UACC-62 melanoma it was 35.3 µM; with OVCAR-5 ovarian, 34.9 µM; in the assay with SF-268 CNS, 53.3 µM.

For the molecule `C/C=C1/CC(C)C(C)(O)C(=O)OCC2C(O)CN3CCC(OC1=O)C23` (stereo not drawn), the TGI in the assay with U251 CNS, in the assay with NCI-H460 lung, in the assay with NCI-H226 lung, in the assay with RXF 393 renal, with HCT-15 colon and with RPMI-8226 leukemia was > 100 µM throughout. The TGI in the assay with MOLT-4 leukemia, in the assay on UACC-62 melanoma, in the assay with OVCAR-5 ovarian and in the assay with SF-268 CNS was > 100 µM throughout.

As for `CCOc1ccn(-c2ccc(F)cc2)c(=O)c1C(=O)Nc1ccc(Oc2ccnc(N)c2Cl)c(F)c1`, the GI50 in the assay with U251 CNS was 26000 nM; with NCI-H460 lung, 4740 nM; in the assay on NCI-H226 lung, 10600 nM; in the assay on RXF 393 renal, 7060 nM; with HCT-15 colon, 10600 nM; in the assay with RPMI-8226 leukemia, 14600 nM. For the same molecule, the GI50 with MOLT-4 leukemia is 5780 nM; in the assay with UACC-62 melanoma it was 2830 nM; with OVCAR-5 ovarian it was 12900 nM; in the assay on SF-268 CNS it was 10900 nM. The TGI in the assay on U251 CNS is > 100 µM; in the assay with NCI-H460 lung, > 87 µM; in the assay on NCI-H226 lung, > 96.1 µM; in the assay on RXF 393 renal, 36.8 µM; with HCT-15 colon, > 79.6 µM; with RPMI-8226 leukemia, > 88.8 µM. The TGI is 59 µM in the assay on MOLT-4 leukemia, 18.5 µM with UACC-62 melanoma, 67 µM in the assay with OVCAR-5 ovarian and > 100 µM in the assay on SF-268 CNS.

As for `Cc1cc(C)c(-c2noc(-c3ccc(Cl)cc3)c2C2=NCCCN2)c(C)c1`, the TGI was 25.8 µM in the assay on U251 CNS; 28.8 µM in the assay with NCI-H460 lung; 95.3 µM in the assay with NCI-H226 lung; 48.5 µM with RXF 393 renal; > 100 µM in the assay with HCT-15 colon; 45.3 µM with RPMI-8226 leukemia. The TGI is 41.7 µM with MOLT-4 leukemia, 40.7 µM in the assay with UACC-62 melanoma, 86 µM in the assay on OVCAR-5 ovarian and 49.6 µM in the assay on SF-268 CNS.

Turning to `CCN(CC)CCCC(C)N/C(=C1\C(=O)NC(=O)\C1=C(/NC(C)CCCN(CC)CC)c1cccc(OC)c1)c1cccc(OC)c1` (stereo not drawn), the GI50 in the assay on U251 CNS is 844 nM; in the assay on NCI-H460 lung it was 580 nM; in the assay on NCI-H226 lung, 1290 nM; with RXF 393 renal, 720 nM; in the assay on HCT-15 colon, 764 nM; in the assay on RPMI-8226 leukemia it was 949 nM. Further, the GI50 is 312 nM in the assay on MOLT-4 leukemia, 859 nM in the assay with UACC-62 melanoma, 1160 nM in the assay with OVCAR-5 ovarian and 1030 nM in the assay on SF-268 CNS. Further, the TGI stood at 1.89 µM in the assay on U251 CNS; 2.05 µM in the assay with NCI-H460 lung; 5.9 µM in the assay on NCI-H226 lung; 1.58 µM in the assay with RXF 393 renal; 4.07 µM with HCT-15 colon; 2.29 µM with RPMI-8226 leukemia. Besides, the TGI with MOLT-4 leukemia is 2.09 µM; with UACC-62 melanoma, 1.62 µM; in the assay with OVCAR-5 ovarian, 3.42 µM; with SF-268 CNS, 3.11 µM.

In the case of `N#Cc1cnc(Nc2cc(NC[C@H]3CNCCO3)c(C(F)(F)F)cn2)cn1`, the GI50 with U251 CNS is 21800 nM; in the assay on NCI-H460 lung, 13400 nM; in the assay with NCI-H226 lung, 22400 nM; in the assay with RXF 393 renal it was 858 nM; in the assay with HCT-15 colon, 11000 nM; in the assay on RPMI-8226 leukemia, 15700 nM. Also, the GI50 in the assay on MOLT-4 leukemia was 3610 nM; with UACC-62 melanoma, 5170 nM; in the assay with OVCAR-5 ovarian, 9370 nM; in the assay with SF-268 CNS, 16200 nM. Also, the TGI with U251 CNS is 73 µM; in the assay on NCI-H460 lung, 38.3 µM; in the assay on NCI-H226 lung, 85.3 µM; in the assay with RXF 393 renal, 18.2 µM; with HCT-15 colon, > 100 µM; in the assay on RPMI-8226 leukemia, 56.3 µM. The TGI with MOLT-4 leukemia was 55.2 µM; in the assay on UACC-62 melanoma, 25.1 µM; in the assay with OVCAR-5 ovarian, 67.1 µM; with SF-268 CNS, 47.5 µM.

Take `CC(=O)[C@H]1CCC/C=C/[C@@H]2C[C@H](O)C[C@H]2[C@H](O)/C=C/C(=O)O1`: the GI50 is 913 nM in the assay on U251 CNS; 2670 nM with NCI-H460 lung; 976 nM with NCI-H226 lung; 236 nM in the assay on RXF 393 renal; 1050 nM in the assay with HCT-15 colon; 360 nM in the assay with RPMI-8226 leukemia. For the same molecule, the GI50 in the assay on MOLT-4 leukemia was 321 nM; in the assay on UACC-62 melanoma, 498 nM; in the assay on OVCAR-5 ovarian it was 2100 nM; with SF-268 CNS, 448 nM. The TGI in the assay with U251 CNS was > 100 µM; in the assay on NCI-H460 lung it was > 100 µM; with NCI-H226 lung it was 2.28 µM; in the assay with RXF 393 renal, 0.742 µM; in the assay with HCT-15 colon, > 44.7 µM; in the assay on UACC-62 melanoma it was > 100 µM. For the same molecule, the figures for the TGI in the assay on OVCAR-5 ovarian and in the assay with SF-268 CNS were > 62.6 µM and > 100 µM, respectively.

As for `CCCCCC/C=C\CCCCCCCCCC1=C(CN2CCN(C)CC2)C(=O)C=C(OC)C1=O`, the TGI in the assay with U251 CNS was 15 µM; in the assay with NCI-H460 lung it was 23.2 µM; in the assay on NCI-H226 lung, 30 µM; with RXF 393 renal, 6.72 µM; in the assay with HCT-15 colon, 7.87 µM; in the assay on RPMI-8226 leukemia it was 3.9 µM. In addition, the TGI in the assay on MOLT-4 leukemia is 1.65 µM; with UACC-62 melanoma, 25.5 µM; with OVCAR-5 ovarian it was 28.8 µM; in the assay on SF-268 CNS it was 19.7 µM.

As to `CN1CCN(Cc2ccc(NC(=O)c3cncc(C#Cc4cnc(N)c5cccnc45)c3)cc2C(F)(F)F)CC1`, the GI50 in the assay with U251 CNS is 233 nM; in the assay on NCI-H460 lung it was 272 nM; with NCI-H226 lung, 191 nM; in the assay on RXF 393 renal, 255 nM; in the assay with HCT-15 colon, 1850 nM; in the assay on RPMI-8226 leukemia, 603 nM. Moreover, the GI50 with MOLT-4 leukemia was 214 nM; in the assay with UACC-62 melanoma, 182 nM; in the assay on OVCAR-5 ovarian, 537 nM; in the assay with SF-268 CNS, 466 nM. Moreover, the TGI was > 31.5 µM in the assay on U251 CNS; > 50 µM with NCI-H460 lung; > 50 µM in the assay with NCI-H226 lung; 2.51 µM in the assay on RXF 393 renal; > 50 µM with HCT-15 colon; > 50 µM in the assay with RPMI-8226 leukemia. Moreover, the TGI with MOLT-4 leukemia was > 50 µM; with UACC-62 melanoma, 0.956 µM; in the assay on OVCAR-5 ovarian, > 50 µM; in the assay with SF-268 CNS, > 50 µM.
